Reference: patent US20210395226A1, “SUBSTITUTED ARYL COMPOUND AND PREPARATION METHOD THEREFOR AND USE THEREOF” (SICHUAN KELUN-BIOTECH BIOPHARMACEUTICAL CO., LTD., priority 2018, published 2021)

Legend:
[1] = target: T1, Adenosine A2a receptor (human) membrane (Homo sapiens, UniProt P29274); test: Determination of competitive inhibition constant (Ki) for adenosine A2a receptor, [3H]-CGS-21680 radioligand; type: binding; conditions: for Ki: human A2a receptor membrane, 6.0 nM [3H]-CGS-21680, read-out: Ki(A2a); for Ki(A1)/Ki(A2a): selectivity ratio A1 over A2a
T1 construct: purchased PerkinElmer RBHA2AM400UA
How it was run: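 Human A2a receptor membranes (5.0 μg/well) were incubated 2 h at room temperature with [3H]-CGS-21680 (working concentration 6.0 nM) in 50 mM Tris-HCl pH 7.4, 10 mM MgCl2, 1 mM EDTA. Bound label was collected on PEI-treated GF/C filters and scintillation counted. Inhibition was scaled between 0.5% DMSO and 1000 nM CGS-15943 controls, IC50 was fitted, and Ki = IC50/(1 + [ligand]/Kd).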

ADORA2a/CHOK1 cells = target: T2, ADORA2a/CHOK1 cells (Homo sapiens, UniProt P29274); test: Inhibitory activity for ADORA2a/CHOK1 cells (cAMP detection, adenosine as agonist); type: cell-based; conditions: for inhibition at 0.1 µM: CHO-K1, 100 nM compound, read-out: Inhibition rate at 100 nM; for inhibition at 1 µM: CHO-K1, 1000 nM compound, read-out: Inhibition rate at 1000 nM
T2 construct: host or cells: CHO-K1
Protocol: Test Example 2: Study on Inhibitory Activity for ADORA2a/CHOK1 Cells
ADORA2a/CHOK1 cells (Cobai, CBP71017).
FBS was added to Ham's F-12 medium to a concentration of 10% (v/v), Zeocin was added to a final concentration of 200 μg/mL, and Hygromycin B was added to a final concentration of 100 μg/mL, and the resulting mixture was stored at 4° C. for later use.
A certain amount of adenosine was precisely weighed and placed into a 1.5 mL EP tube, then a certain volume of cell culture medium was added, the resulting mixture was incubated at 37° C. for dissolution, thereby a 10 mM stock solution was prepared. The stock solution was diluted with cell culture medium at 1:1000 to get 10 μM adenosine solution.
The compound to be tested was dissolved in DMSO to form a 10 mM stock solution, and the stock solution was stored in a refrigerator at 4° C. for later use. The stock solution was diluted with the 10 μM of adenosine solution to 2000 nM or 200 nM for later test.
(1) CHO-K1 cells stably expressing ADORA2A receptor were cultured in a 37° C., 5% CO2 cell incubator. When the cell confluence reached about 80%, the cells were digested by trypsin, dispersed and counted; (2) the cell concentration was adjusted to 6×10^5 cells/mL according to the counting results; (3) the cells was inoculated into a white 384-well cell culture plate at 5 μL per well (about 3000 cells/well).
All groups were provided with multiple wells, the adenosine-free cell culture medium was added to the wells of the Blank group (5 μL/well); 10 μM adenosine solution was added to the wells of the Agonist group (5 μL/well); the diluted compound was added to the wells of the test compound group (5 μL/well). After the addition of the compound was completed, the 384-well plate was centrifuged at 2500 rpm for 30 seconds to fully mix the compound and the medium, then placed in a 25° C. incubator and incubated for 30 min.
A certain volume of cAMP-d2 was taken, and diluted by adding Lysis & Detection Buffer at the ratio of 1:5 to prepare Solution A.
A certain volume of cAMP-Cryptate was taken, and diluted by adding Lysis & Detection Buffer at the ratio of 1:5 to prepare Solution B.
(2) After 30 min of incubation in step 2 was completed, addition of detection solution was carried out. The 384-well plate was taken out, 5 μL of Solution A was added to each well, and then 5 μL of Solution B was added to each well, then the 384-well plate was covered with sealing membrane, centrifuged at 2500 rpm for 30 s (to fully mix the detection solution and medium), and incubated in a thermostat at 25° C. for 1 h.
After the incubation, the 384-well plate was taken out, and detected by PHERA Star FS to read data, detection wavelength: 620 nm/665 nm.
inhibition rate %=(1−(RCompound−RBlank)/(RAgonist−RBlank))*100%
wherein, RCompound represented the R Value of the test compound group, RAgonist represented the R value of the Agonist group, and RBlank represented the R value of the Blank group.

T2 sequence (P29274 whole entry): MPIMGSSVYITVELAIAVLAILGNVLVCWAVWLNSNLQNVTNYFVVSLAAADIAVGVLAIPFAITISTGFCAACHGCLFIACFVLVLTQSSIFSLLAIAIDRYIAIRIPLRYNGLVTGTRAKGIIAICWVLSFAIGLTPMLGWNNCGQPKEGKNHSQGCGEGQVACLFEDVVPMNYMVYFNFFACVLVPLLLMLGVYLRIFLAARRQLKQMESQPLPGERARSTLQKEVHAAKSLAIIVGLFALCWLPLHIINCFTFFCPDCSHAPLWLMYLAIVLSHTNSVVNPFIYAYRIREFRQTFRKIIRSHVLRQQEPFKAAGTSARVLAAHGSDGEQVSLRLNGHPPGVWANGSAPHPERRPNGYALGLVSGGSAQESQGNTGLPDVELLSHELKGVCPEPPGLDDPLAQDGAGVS
T1 sequence (P29274 whole entry): as above

Ki [1] [nM] | Ki(A1)/Ki(A2a) [1] | inhibition at 0.1 µM (ADORA2a/CHOK1 cells) [%] | inhibition at 1 µM (ADORA2a/CHOK1 cells) [%] | SMILES
3.4 | 59.9 | 72 | 112 | Cc1ncnc2ccc(-c3cnc(NC(=O)N4CCOCC4)nc3-c3ccc(F)cc3)cc12 [Compound 11, N-(4-(4-fluorophenyl)-5-(4-methylquinazolin-6-yl)pyrimidin-2-yl) morpholine-4-carboxamide]
9.6 | 146.3 | 33.9 | 94.4 | Cc1cc(-c2cnc(NC(=O)N3CCOCC3)nc2-c2ccc(F)cc2)cc(Cl)n1 [Compound 19, N-(5-(2-chloro-6-methylpyridin-4-yl)-4-(4-fluorophenyl)pyrimidin-2-yl) morpholine-4-carboxamide]
